Patent US5866570A, “Treatment of vascular leakage and related syndrome such as septic shock by administration of metalloproteinase inhibitors” (Wisconsin Alumni Research Foundation, priority 1994, dated 1999)
≈ marks a conversion by molar mass, not a printed value.

How the values were obtained:
BALB/C mice [1] = test: septic shock induced by i.p. endotoxin (Salmonella abortus equi); assay type: in vivo; conditions: for Survival/Total Ratio after 24 h / Survival/Total Ratio after 48 h / Survival/Total Ratio after 72 h: endotoxin2 (Salmonella abortus equi) i.p., drug i.p. 1 h before, 9 h and 20 h after
Method: Effect of razoxane in preventing death due to endotoxin-induced septic shock. Twelve BALB/c mice (female, 10-12 weeks old, 18-20 g) were injected i.p. with endotoxin (Salmonella abortus equi) twice at time zero (70 μg/mouse) and 48 h (30 μg/mouse). Razoxane (2 mg/mouse, in 1% sodium carboxymethyl cellulose) was given i.p. three times, i.e., 1 h. before, 9 h. and 20 h. after injection of initial dose of endotoxin. Another twelve mice, injected with endotoxin as above, were treated with buffer solution (1 % sodium carboxymethyl cellulose) as negative controls. It can be seen therein that the majority of control mice were dead within 50 hours of the initial endotoxin administration. In contrast, approximately 80% of the razoxane treated mice were still alive after 50 hours. Moreover, about 60% of the razoxane treated mice were still alive 100 hours after endotoxin administration, and recovered later on.
Effect of Compound 80 in preventing death due to endotoxin-induced septic shock. Twenty BALB/c mice (female, 10-12 weeks old, 18-20 g) were injected i.p. with endotoxin (Salmonella abortus equi, 100 μg/mouse). Compound 80 (0.33 mg/mouse) was given i.p. to 10 mice three times, i.e., 1 hour before, 9 hours and 20 hours after injection of endotoxin. The other 10 mice were injected with diluents as negative controls. The number of the mice survived at different periods to time after endotoxin injection were recorded. (P<0.0002).

BALB/C mice [2] = test: septic shock induced by galactosamine and endotoxin (E. coli 026:B6); assay type: in vivo
Method: Ten BALB/C mine were injected i.p. with 18 mg of D-galactosamine and 1 μg of endotoxin. Three units of heparin were given i.v. and 10 units heparin were given subcutaneously at 30 min to prevent intravascular coagulation.
Ten BALB/C mice were treated with razoxane (100 μg/g body weight i.p., dissolved in 1% carboxymethyl-cellulose in normal saline). The mice were then injected i.p. with 18 mg of D-galactosamine and 1 μg of endotoxin. Three units of heparin were given i.v. and 10 units heparin were given subcutaneously to each mice at 30 min.

retired bred BALB/C mice = test: septic shock induced by i.v. endotoxin (E. coli 026:B6); assay type: in vivo; conditions: razoxane 100 μg/g i.p. before 200 μg endotoxin i.v.; heparin
Method: Two retired bred BALB/C mice were injected with 100 μg of endotoxin and 3 units of heparin i.v., followed by 10 units heparin subcutaneously. Another two mice were treated the same except with 200 μg of endotoxin. All died within 24 h.
Six retired bred BALB/C mice were treated with razoxane (100 μg/g body weight i.p.). The mice were then injected with 200 μg of endotoxin and 3 units of heparin i.v., followed by 10 units heparin subcutaneously.

OVCAR-3 cells = test: OVCAR-3 human ovarian cancer model in nude mice; assay type: in vivo; conditions: 30 mg/kg i.p., one dose/day 5 consecutive days/week, from 24 hours before 20 million cells i.p.
Method: Dose and Schedule--Razoxane was suspended in sterile 1% CMC (carboxymethyl cellulose) 0.9% NaCl by sonication in a water bath. Mice received 30 mg/kg drug in 10 μl/g CMC per i.p. dose beginning 24 hours prior to cell implantation. Each mouse received one dose/day i.p. for 5 consecutive days with 2 days of recovery. Treatment continued until mouse death or sacrifice.
OVCAR-3 cells--were received from Dr. Tom Hamilton and are maintained by passage of ascites directly from the mouse. The ascites is harvested from the mouse by rinsing the peritoneal cavity with HBSS, treated briefly with Dispase to dissociate clumps, centrifuged, counted, resuspended in HBSS and 20 million cells injected i.p. per mouse.
Mice--HSD nu/nu female mice 6 weeks old (18-22 g) are weighed, tagged with a metal ear clip, and randomized for treatment or control groups. Mice are weighed daily and the dose of drug or vehicle is calculated.
Visible ascites appears around day 14 with small solid tumors at the sites of injections. The mice swell with hemorrhagic ascites prior to death. At necropsy mice contain massive invasive carcinomatosis obliterating most of the normal organs of the peritoneal cavity with significant metastasis to the lungs. A 25% increase in mean/median survival time with drug treatment is considered significant in this model.

S180 tumors = conditions: cited from earlier work
L1210 leukemia = conditions: 13 doses at 30 mg/kg; cited from earlier work
mouse L cell = conditions: l cells; read-out: ID50 inhibition of colony formation; cited from earlier work
[3] = at 25° C.; cited from earlier work
[4] = galactosamine + endotoxin1 (E. coli 026:B6)
[5] = razoxane 2 mg/mouse i.p. three times, endotoxin 70 μg at 0 h and 30 μg at 48 h

Row | SMILES | Survival/Total Ratio after 24 h (BALB/C mice [1]) | Survival/Total Ratio after 48 h (BALB/C mice [1]) | Survival/Total Ratio after 72 h (BALB/C mice [1]) | Survival/Total Ratio after 24 h (BALB/C mice [2]; [4]) | Survival/Total Ratio after 48 h (BALB/C mice [2]; [4]) | Survival/Total Ratio after 72 h (BALB/C mice [2]; [4]) | mice surviving more than 24 h (BALB/C mice [2]; razoxane 100 μg/g i.p. before 18 mg D-galactosamine + 1 μg endotoxin i.p., heparin) | mice surviving more than 24 h (retired bred BALB/C mice) | treated mice still alive 100 hours after endotoxin administration (BALB/C mice [1]; [5]) | treated mice still alive after 50 hours (BALB/C mice [1]; [5]) | difference in the survival time between treated and control mice (OVCAR-3 cells) [%] | inhibition of S180 tumors (S180 tumors; 5 doses at 30 mg/kg) [%] | calculated ratio of maximum tolerated dose to the dose required for 90% inhibition of S180 tumor growth (S180 tumors; therapeutic index in vivo) | increase in survival time (L1210 leukemia) [%] | IC50 (mouse L cell) [nM] | solubility in water [3] [µg/mL]
1 | CC1(C)O[C@H]2C[C@H](N3CC(=O)NC(=O)C3)[C@@H](N3CC(=O)NC(=O)C3)C[C@@H]2O1 (relative stereo) [Compound 80, (3aα, 5β, 6α, 7aβ)-4,4'-(hexahydro-2,2-dimethyl-1,3-benzodioxole-5,6-diyl)bis(2,6-piperazinedione)] | 10/10 | 8/10 | 6/10 |  |  |  |  |  |  |  |  |  |  |  |  | 
2 | CC(CN1CC(=O)NC(=O)C1)N1CC(=O)NC(=O)C1 (stereo not shown) [razoxane] | 10/12 | 9/12 | 7/12 | 2/10 | 2/10 | 2/10 | Two out of ten | Two out of six | about 60% | approximately 80% | > 33 | 93 | 9.8 | 137 | 3000 | 3000 (≈ 11.2 mM)
